Reference: ChEMBL document CHEMBL1201862, “PubChem BioAssay data set” (2004)
Active and inactive are the calls of the source.

Experiments:
[1] = Luminescence Cell-Based Dose Confirmation HTS to Identify Activators of 5'UTR Stem-Loop Driven Alpha-Synuclein mRNA Translation in H4 Neuroglioblastoma Cells. [Related pubchem assays: 1829 (Project Summary), 1814 (Primary HTS)]; format: functional
[2] = Luminescence Cell-Based Dose Response HTS to Identify Activators of Luciferase Translation or Activity in H4 […] Cells. [Related pubchem assays: 1829 (Project Summary), 1814 (Primary HTS)]; format: functional
H4 = test: Luminescence Cell-Based Dose Response HTS to Identify Activators of 5'UTR Stem-Loop Driven Prion Protein mRNA Translation in H4 Neuroglioblastoma Cells. [Related pubchem assays: 1829 (Project Summary), 1814 (Primary HTS)]; format: functional; details: Homo sapiens
[3] = molecular target: T1, Ubiquitin-conjugating enzyme E2 N (Homo sapiens, UniProt P61088); format: functional;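 further: Dose-response confirmation in a TR-FRET assay detecting UBC13-driven polyubiquitin chain formation, inhibition measured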
T1 sequence (P61088 whole entry): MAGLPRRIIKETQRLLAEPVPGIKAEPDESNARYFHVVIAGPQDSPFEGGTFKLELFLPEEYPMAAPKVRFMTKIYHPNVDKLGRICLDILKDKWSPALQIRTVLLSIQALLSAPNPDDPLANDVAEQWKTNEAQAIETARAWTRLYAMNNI

Melanocortin receptor 4 = Melanocortin receptor 4 (Homo sapiens, UniProt P32245); format: functional, cell-based;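 further: Cell-based assay with luminescence read-out, confirmatory dose-response testing for agonist activity of biased ligands at MC4R; human U2OS cells with tagged receptor and beta-arrestin; potency of agonists that increase receptor coupling to beta-arrestin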
Melanocortin receptor 4, sequence (P32245 whole entry, the tested form may be a part): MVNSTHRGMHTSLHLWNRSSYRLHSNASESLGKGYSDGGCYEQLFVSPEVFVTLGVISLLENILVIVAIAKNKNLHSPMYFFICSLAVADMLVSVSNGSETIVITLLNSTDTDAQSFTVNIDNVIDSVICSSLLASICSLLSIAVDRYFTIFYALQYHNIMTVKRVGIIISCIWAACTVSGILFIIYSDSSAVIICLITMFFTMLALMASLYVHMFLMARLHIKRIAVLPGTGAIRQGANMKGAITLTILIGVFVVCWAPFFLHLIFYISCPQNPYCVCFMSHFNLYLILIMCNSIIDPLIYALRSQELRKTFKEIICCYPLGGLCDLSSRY

[4] = inhibitors of HIV Env-driven cell fusion, dose response, cherry-pick (AID 652057); format: functional, cell-based
[5] = CEM21 lymphoblast cell cytotoxicity, dose response, cytotoxicity control for viral fusion inhibitor project, CellTiter-Glo luminescence, cherry-picked (AID 652042); format: functional, cell-based;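 further: potency for signal decrease meaning cytotoxicity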
[6] = ZM109 Env clade C HIV-1 fusion inhibitors, dose response, HeLa effector, CEM target cells, luciferase, cherry-pick (AID 652058); format: functional, cell-based
[7] = off-target signal loss in HeLa-CEM21 co-culture – HeLa F-luc CTL cells, cherry-picked, counter-screen for HIV-1 Env fusion inhibitor project, dose response (AID 652040); format: functional, cell-based;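 further: potency for signal decrease marking cytotoxic or nonspecific inhibition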
[8] = inhibitors of clade B AD8 Env fusion, dose response, cell-based, cherry-pick (AID 652062); format: functional;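 further: luciferase signal from cell-cell fusion driven by HIV-1 clade B AD8 Env; potency is for inhibitors of fusion seen as a drop in luminescence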
HEK293 [9] = test: cells; details: Homo sapiens
HEK293 [10] = test: cells; details: Homo sapiens; remark: listed apart in the source
[11] = molecular target: Fructose-bisphosphate aldolase (Mycobacterium tuberculosis, UniProt P9WQA3); test: Fluorescence-based biochemical high throughput dose response assay for inhibitors of the fructose-bisphosphate aldolase (FBA) of M. tuberculosis.; format: functional
Fructose-bisphosphate aldolase, sequence (P9WQA3 whole entry): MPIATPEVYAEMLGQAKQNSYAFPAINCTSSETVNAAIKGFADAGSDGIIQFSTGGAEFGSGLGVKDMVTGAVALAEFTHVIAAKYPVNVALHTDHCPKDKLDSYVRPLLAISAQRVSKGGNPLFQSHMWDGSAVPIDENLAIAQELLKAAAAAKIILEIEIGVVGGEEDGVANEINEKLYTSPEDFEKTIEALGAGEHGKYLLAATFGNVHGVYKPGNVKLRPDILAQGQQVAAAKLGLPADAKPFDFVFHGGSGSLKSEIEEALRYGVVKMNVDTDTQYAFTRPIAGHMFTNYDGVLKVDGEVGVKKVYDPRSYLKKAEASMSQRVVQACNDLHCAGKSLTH

[12] = molecular target: T2, DNA repair and recombination protein RAD54-like (Homo sapiens, UniProt Q92698); test: inhibitors of human RAD54 branch migration, confirmation, biochemical, fluorescence, cherry-picked samples, dose series (AID 651657); format: functional
T2 sequence (Q92698 whole entry): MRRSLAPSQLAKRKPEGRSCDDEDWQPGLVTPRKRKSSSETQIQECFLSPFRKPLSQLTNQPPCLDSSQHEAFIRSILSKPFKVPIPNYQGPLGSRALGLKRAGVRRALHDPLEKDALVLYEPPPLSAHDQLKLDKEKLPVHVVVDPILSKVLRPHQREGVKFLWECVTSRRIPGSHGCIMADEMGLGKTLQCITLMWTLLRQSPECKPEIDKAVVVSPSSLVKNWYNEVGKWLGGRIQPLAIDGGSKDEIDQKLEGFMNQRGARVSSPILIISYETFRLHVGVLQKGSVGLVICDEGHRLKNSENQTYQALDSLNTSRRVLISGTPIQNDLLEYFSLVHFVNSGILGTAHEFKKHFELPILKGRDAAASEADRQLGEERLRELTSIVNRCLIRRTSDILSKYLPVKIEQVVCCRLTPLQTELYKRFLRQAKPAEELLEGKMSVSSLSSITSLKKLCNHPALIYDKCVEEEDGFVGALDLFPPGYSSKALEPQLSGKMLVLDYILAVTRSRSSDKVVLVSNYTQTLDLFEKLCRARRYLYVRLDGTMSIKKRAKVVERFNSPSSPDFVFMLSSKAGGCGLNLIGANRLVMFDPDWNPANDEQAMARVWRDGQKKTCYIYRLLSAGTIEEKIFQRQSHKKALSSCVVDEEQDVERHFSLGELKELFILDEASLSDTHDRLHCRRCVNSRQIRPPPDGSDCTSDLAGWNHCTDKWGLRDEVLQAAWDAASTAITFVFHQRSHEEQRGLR

[13] = molecular target: DNA repair protein RAD52 homolog (Homo sapiens, UniProt P43351); format: functional, biochemical
DNA repair protein RAD52 homolog, sequence (P43351 whole entry): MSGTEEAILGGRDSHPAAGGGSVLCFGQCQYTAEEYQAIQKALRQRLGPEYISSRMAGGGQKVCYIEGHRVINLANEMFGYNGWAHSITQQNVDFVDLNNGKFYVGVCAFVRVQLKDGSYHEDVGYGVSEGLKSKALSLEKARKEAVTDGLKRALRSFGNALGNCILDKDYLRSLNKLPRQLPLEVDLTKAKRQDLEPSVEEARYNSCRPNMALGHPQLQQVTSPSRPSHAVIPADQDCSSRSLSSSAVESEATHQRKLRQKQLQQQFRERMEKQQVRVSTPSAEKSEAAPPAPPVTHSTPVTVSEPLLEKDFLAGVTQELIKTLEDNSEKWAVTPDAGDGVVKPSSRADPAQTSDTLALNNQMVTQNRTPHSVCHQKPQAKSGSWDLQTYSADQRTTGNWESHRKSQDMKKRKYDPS

[14] = miR-122 activators in hepatoma reporter cells, dose response, cell-based, Huh7 psiCHECK-miR122, Renilla luciferase, cherry-picked (AID 651956); format: functional;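 further: huh7 hepatoma cells stably carrying a psiCHECK-2 miR-122 sensor plasmid; renilla luciferase signal reporting endogenous miR-122 activity after 48 h compound exposure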
[15] = LMP1-driven NF-kB reporter inhibition, dose response, cell-based, luciferase reporter, luminescence, dry powder, set 2 (AID 624376); format: functional
[16] = HEK293T cytotoxicity, dose response, cytotoxicity control for miR-122 modulator project, cell-based, inhibitor set, cherry-pick, set 2 (AID 720697); format: functional
cells [17] = format: functional, cell-based
[18] = molecular target: T3, Trace amine-associated receptor 1 (Homo sapiens, UniProt Q96RJ0); test: Fluorescence-based cell-based high throughput dose response assay to identify agonists of the human trace amine associated receptor 1 (TAAR1).; format: functional
T3 sequence (Q96RJ0 whole entry): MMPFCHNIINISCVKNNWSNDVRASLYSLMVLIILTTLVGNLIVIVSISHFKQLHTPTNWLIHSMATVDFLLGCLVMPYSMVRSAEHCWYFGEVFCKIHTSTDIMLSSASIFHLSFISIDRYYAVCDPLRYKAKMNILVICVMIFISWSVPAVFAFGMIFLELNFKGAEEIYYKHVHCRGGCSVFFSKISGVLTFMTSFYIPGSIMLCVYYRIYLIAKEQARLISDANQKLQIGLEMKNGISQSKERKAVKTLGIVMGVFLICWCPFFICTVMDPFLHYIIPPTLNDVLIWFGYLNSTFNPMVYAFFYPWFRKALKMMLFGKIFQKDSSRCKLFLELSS

[19] = molecular target: T3, Trace amine-associated receptor 1; test: Counterscreen for agonists of the human trace amine associated receptor 1 (hTAAR1): Fluorescence-based cell-based high throughput dose response assay to identify hTAAR1 agonist that also desensitize TAAR1 receptor response.; format: functional
cells [20] = format: functional, cell-based; remark: listed apart in the source
[21] = inhibitors of intracellular T. cruzi replication, confirmation, NIH3T3 host cells, beta-gal luminescence (AID 2044); format: functional, cell-based;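 further: intracellular parasites grown in NIH/3T3 mouse fibroblasts as host cells; luminescent beta-galactosidase reporter signal from transgenic T. cruzi replicating inside host cells; inhibitors lower the luminescence signal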
[22] = cytotoxicity toward NIH3T3 fibroblasts, dose response, counter-screen, cell-based, ATP luminescence, mouse fibroblasts (AID 2010); format: functional;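 further: cells exposed to compound for about 90 hours before reading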

Question: What does the source list for `Cc1c(CCOC(=O)CC23CC4CC(CC(C)(C4)C2)C3)sc[n+]1CC(=O)c1ccccc1`?
Answer: EC50 [1]: > 120 µM (not active); EC50 [2]: > 120 µM (not active); EC50 (H4): > 120 µM (not active); IC50 [3]: > 20 µM (inactive); EC50 (Melanocortin receptor 4): > 89.2 µM (inactive); AC50 [4]: 3.05 µM (active); AC50 [5]: 16.8 µM (active); AC50 [6]: 3.85 µM (active); AC50 [7]: 4.35 µM (active); AC50 [8]: 12.7 µM (active); EC50 (HEK293 [9]): > 59.6 µM (inactive); EC50 (HEK293 [10]): > 59.6 µM (inactive)

Question: For `CC(NNC(=S)N1CCCCCC1)c1ccc2ccccc2n1` (configuration not stated), which AC50 [5] is on record?
Answer: 1.59 µM (active)

Question: With `CN(C)c1ccc(-c2ccnc3c2CC(C)(C(=O)NCc2cccs2)O3)cc1` (configuration not stated) as the molecule, how does the IC50 [11] read?
Answer: 0.56 µM (active)

Question: With `COc1ccc(-c2cc3nc(NCCN4CCCC4)n(C)c(=O)c3s2)cc1OC` as the molecule, how does the AC50 [12] read?
Answer: 11.6 µM (active)

Question: And the AC50 [13]?
Answer: 2.43 µM (active)

Question: Which AC50 [14] does the source give for `COc1cccc(S(=O)(=O)N(C)C[C@@H]2Oc3cc(C4=CCCCC4)ccc3S(=O)(=O)N([C@H](C)CO)C[C@H]2C)c1` here?
Answer: 30.2 µM (active)

Question: What about the AbsAC35 [15] of the same molecule?
Answer: 85.29 µM

Question: What about the AC50 [16] of the same molecule?
Answer: 0.502 µM (active)

Question: Which IC50 (cells [17]) does the source give for `Cc1ccccc1C(=O)N[C@H](C(=O)N1CCC[C@H]1C(=O)NCCc1ccccc1Cl)c1ccccc1` here?
Answer: > 29.9 µM (inactive)

Question: And the EC50 [18]?
Answer: 6.12 µM (active)

Question: And the IC50 [19]?
Answer: 7.72 µM (active)

Question: What about the EC50 (cells [20]) of the same molecule?
Answer: > 29.9 µM (inactive)

Question: Which EC50 [21] does the source give for `CCCN(CCC)CCCNC(=S)Nc1ccc2nc(N3CCN(C)CC3)cc(C)c2c1` here?
Answer: 2.24 µM (active)

Question: What about the EC50 [22] of the same molecule?
Answer: > 60 µM (not active)

Question: What about the AC50 [12] of the same molecule?
Answer: 31.9 µM (active)

Question: And the AC50 [13]?
Answer: 5.96 µM (active)
